Like-named read-outs stand apart in the source and are kept apart here.
Legend:
[1] = parameters: method as in PMID 16888726, doi:10.1016/j.jfluchem.2010.10.008; settings: cited from earlier work
[2] = target: T1, human serum albumin (Homo sapiens, UniProt P02768); settings: Chiralpak HSA column, cited from earlier work
T1 construct: purchased

[3] = tested on: LNCaP cells; settings: 1 h, 37 °C, percentage of reference ligand ([125I]I-BA)KuE, n = 3; cited from earlier work
[4] = n-octanol/PBS pH 7.4, cited from earlier work
[5] = target: T2, PSMA (Homo sapiens, UniProt Q04609); settings: LNCaP cells, 1 h, 4 °C, n = 3; read-out: IC50 (binding affinity); cited from earlier work
T2 construct: host or cells: LNCaP cells
T2 sequence (Q04609 whole entry): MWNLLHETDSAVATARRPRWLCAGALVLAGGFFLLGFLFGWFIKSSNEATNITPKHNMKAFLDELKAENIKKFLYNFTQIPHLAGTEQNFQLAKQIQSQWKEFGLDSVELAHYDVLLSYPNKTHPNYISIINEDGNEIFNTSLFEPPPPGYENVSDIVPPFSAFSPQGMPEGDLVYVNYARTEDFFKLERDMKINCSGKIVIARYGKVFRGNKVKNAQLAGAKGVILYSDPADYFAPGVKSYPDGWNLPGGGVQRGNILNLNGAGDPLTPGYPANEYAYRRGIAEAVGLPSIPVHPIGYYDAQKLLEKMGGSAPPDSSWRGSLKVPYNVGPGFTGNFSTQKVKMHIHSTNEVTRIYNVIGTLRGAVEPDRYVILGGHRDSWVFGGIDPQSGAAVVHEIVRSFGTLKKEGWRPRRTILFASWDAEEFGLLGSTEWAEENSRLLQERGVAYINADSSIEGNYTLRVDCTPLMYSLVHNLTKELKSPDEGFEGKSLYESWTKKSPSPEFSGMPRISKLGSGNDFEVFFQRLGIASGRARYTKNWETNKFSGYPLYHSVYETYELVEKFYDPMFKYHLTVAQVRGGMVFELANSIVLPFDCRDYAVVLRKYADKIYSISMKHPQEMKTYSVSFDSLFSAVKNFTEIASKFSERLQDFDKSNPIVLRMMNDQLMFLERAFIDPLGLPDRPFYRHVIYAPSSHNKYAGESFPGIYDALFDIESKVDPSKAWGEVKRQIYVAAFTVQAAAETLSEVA

[6] = tested on: LNCaP tumor-bearing male CB-17 SCID mice; experiment: Biodistribution 1 h p.i. with competition (co-injection of 2-PMPA); type: in vivo; settings: co-injected with 2-PMPA (8 mg/kg), n = 3
Procedure: (§1) LNCaP tumor xenografts were established in 6–8 weeks old male CB-17 SCID mice as described previously.
(§2) 1–3 MBq (0.2 nmol) of the [^18F, ^natGa]rhPSMA inhibitors were injected into the tail vein of LNCaP tumor-bearing male CB-17 SCID mice that were sacrificed 1 h post injection (p.i.) (n = 4 for 7.1, n = 5 for 7.2, n = 4 for 7.3, n = 5 for 7.4 and n = 3 for 7). Selected organs were removed, weighed, and measured in a γ-counter. For competition studies, 8 mg/kg of 2-PMPA (2-(Phosphonomethyl)-pentandioic acid) were co-administered (n = 3).

[7] = target: T2, PSMA; experiment: Competitive binding (IC50) on LNCaP cells vs ([125I]I-BA)KuE; settings: ratio of IC50 values
Procedure: (§3) Competitive binding studies were determined on LNCaP cells (1.5 × 10^5 cells in 1 mL/well) after incubation at 4 °C for 1 h, using (((S)-1-carboxy-5-(4-([^125I]iodo)benzamido)pentyl)carbamoyl)-L-glutamic acid (([^125I]I-BA)KuE; 0.2 nM/well) as reference radioligand (n = 5–9). Internalization studies of the radiolabeled ligands (0.5 nM/well) were performed on LNCaP cells (1.25 × 10^5 cells in 1 mL/well) at 37 °C for 1 h and accompanied by ([^125I]I-BA)KuE (0.2 nM/well), as reference. Data were corrected for non-specific binding and normalized to the specific internalization observed for the reference (n = 3–6). A detailed description of the experimental procedures was previously published.

[8] = tested on: LNCaP tumor-bearing mice; experiment: Differential uptake and excretion pattern of isomers after injection of the diastereomeric mixture (radio-HPLC); type: in vivo; settings: blood, liver, kidney and tumor, 30 min p.i., n = 4
Procedure: With the intention to identify even marginal differences in the in vivo behavior, all four [^18F, ^natGa]rhPSMA-7 isomers were co-evaluated in one single tumor-bearing mouse in order to quantify the differential uptake and excretion pattern of each isomer. For this purpose, the diastereomeric mixture [^18F, ^natGa]rhPSMA-7 was produced in high molar activity (AM) of 247–349 GBq/µmol (at end of synthesis) and the abundance of each isomer was determined by radio-HPLC. Mice (n = 4) were injected with [^18F, ^natGa]rhPSMA-7 (180–280 MBq, 0.9–1.0 nmol) and left under anesthesia. After 30 min p.i., they were sacrificed and urine, blood, liver, kidneys and tumor were collected and processed. Radioactivity was extracted from solid tissues by means of a Potter–Elvehjem tissue grinder (n = 1) or a ball mill (n = 3) and separated from the protein fraction by subsequent cartridge-based solid-phase extraction (SPE). Blood samples were diluted, centrifuged and the supernatant was purified by SPE (see supporting information). Urine and extracts from tissue samples were then analyzed by radio-HPLC to quantify the fraction of each isomer in each sample. Finally, the relative percentage difference between the abundance of each isomer in the injected diastereomeric mixture (values taken from the quality control) and the abundance of the respective isomer in each analyzed tissue or body fluid was calculated. […] PeakFit allows for automated nonlinear separation, analysis and quantification of HPLC elution profiles by deconvolution procedures that uses a Gaussian response function with a Fourier deconvolution/filtering algorithm (see Additional file 1: Fig. 7).
Extraction via the Potter-Elvehjem Tissue Grinder. Tumor and kidneys were separately homogenized in the tissue homogeniser with 1 mL of extraction buffer (850 μL 1 M HEPES pH 7.4, 100 μL 20 mM PMPA and 100 μL 1 M NaCl) for 30 min. The resulting homogenate was collected and centrifuged at 13000×g for 5 min. Subsequently, the supernatant was collected, centrifuged again (13000×g, 5 min) and loaded on a Strata X cartridge (33 μm Polymeric Reversed Phase 500 mg) preconditioned with 5 mL MeOH, followed by 5 mL H2O. After washing with 5 mL H2O, the cartridge was eluted with a 3:2 mixture (v/v) of MeCN in H2O supplemented with 1% TFA. For radio-HPLC analysis the eluates were diluted with water.
Extraction via the MM-400 Ball Mill. The samples (tumor, kidney, liver) were separately homogenized in a 2 mL tube together with 3 grinding balls (3 mm diameter) and 1 mL of extraction buffer (850 μL 1 M HEPES pH 7.4, 100 μL 20 mM PMPA and 100 μL 1 M NaCl) for 10 min at 30 Hz. The homogenate was centrifuged at 13 000×g for 5 min and the supernatant was collected. […]

[9] = tested on: LNCaP cells; experiment: Internalization into LNCaP cells relative to ([125I]I-BA)KuE; type: cell-based; settings: 1 h, 37 °C, percentage of reference ligand ([125I]I-BA)KuE, n = 3-6
Procedure: as §3

[10] = tested on: LNCaP tumor-bearing male CB-17 SCID mice; experiment: Biodistribution 1 h p.i.; type: in vivo
Procedure: as §1, §2

[11] = target: T1, human serum albumin; experiment: Human serum albumin binding on Chiralpak HSA column; type: in vitro ADME
Procedure: Approximately 1 MBq of the ^18F-ligand was dissolved in 1 mL of a 1:1 mixture (v/v) of phosphate-buffered saline (PBS, pH 7.4) and n-octanol (n = 18–23). After vigorous mixing of the suspension for 3 min, the vial was centrifuged at 15,000 × g for 3 min and 100 μL aliquots of both layers were measured in a γ-counter. HSA binding of ^19F-^natGa-rhPSMA ligands was determined according to a previously published procedure.

T1 sequence (P02768 25-609): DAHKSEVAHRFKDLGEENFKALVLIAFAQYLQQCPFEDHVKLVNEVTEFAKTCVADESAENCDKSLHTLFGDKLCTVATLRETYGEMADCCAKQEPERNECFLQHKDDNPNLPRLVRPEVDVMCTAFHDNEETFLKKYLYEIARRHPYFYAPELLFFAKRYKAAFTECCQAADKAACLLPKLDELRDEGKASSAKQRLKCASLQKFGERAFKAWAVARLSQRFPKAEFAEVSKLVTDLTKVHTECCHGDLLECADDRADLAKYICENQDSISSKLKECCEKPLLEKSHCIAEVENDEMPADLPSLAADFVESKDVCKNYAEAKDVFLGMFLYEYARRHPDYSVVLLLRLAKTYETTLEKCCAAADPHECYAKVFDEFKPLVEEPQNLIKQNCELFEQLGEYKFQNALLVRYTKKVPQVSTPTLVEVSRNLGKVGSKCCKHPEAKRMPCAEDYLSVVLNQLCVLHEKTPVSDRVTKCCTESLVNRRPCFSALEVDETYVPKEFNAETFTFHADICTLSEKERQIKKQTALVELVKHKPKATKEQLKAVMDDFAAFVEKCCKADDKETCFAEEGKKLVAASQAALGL

Row | Compound | HSA-binding [2] [%] | Internalization (internalized activity) [3] | Biodistribution Adrenals [6] [% ID/g] | Biodistribution Blood [6] [% ID/g] | Biodistribution Bone [6] [% ID/g] | Biodistribution Heart [6] [% ID/g] | Biodistribution Intestine [6] [% ID/g] | Biodistribution Kidneys [6] [% ID/g] | Biodistribution Liver [6] [% ID/g] | Biodistribution Lung [6] [% ID/g] | Biodistribution Muscle [6] [% ID/g] | Biodistribution Pancreas [6] [% ID/g] | Biodistribution Spleen [6] [% ID/g] | Biodistribution Stomach [6] [% ID/g] | Biodistribution Tumor [6] [% ID/g] | Abundance (enrichment) of the isomer in tissue compared to time point of injection [8] | Internalization (internalized activity) [9] | Biodistribution Adrenals [10] [% ID/g] | Biodistribution Blood [10] [% ID/g] | Biodistribution Bone [10] [% ID/g] | also measured
1 | CC(C)(C)[Si](F)(c1ccc(C(=O)O)cc1)C(C)(C)C [SiFA-moiety, 4-(di-tert-butylfluorosilyl)benzoic acid] | – | – | – | – | – | – | – | – | – | – | – | – | – | – | – | – | – | – | – | – | log P [1]: 3.6
2 | O=C(O)CC[C@H](NC(=O)N[C@@H](CCCCNC(=O)c1ccc(F)nc1)C(=O)O)C(=O)O [[^18/19F]DCFPyL] | 14 | 118 ± 4 % of reference | – | – | – | – | – | – | – | – | – | – | – | – | – | – | – | – | – | – | Lipophilicity Log D ([4]; listed as [^18F]DCFPyL): -3.4 ± 0.03
3 | O=C(O)CC[C@H](NC(=O)N[C@@H](CCCCNC(=O)[C@H](Cc1ccc2ccccc2c1)NC(=O)c1ccc(CNC(=O)[C@H](CCC(=O)O)NC(=O)[C@H](CCC(=O)O)NC(=O)c2ccc(F)nc2)cc1)C(=O)O)C(=O)O [[^18/19F]PSMA-1007] | – | – | – | – | – | – | – | – | – | – | – | – | – | – | – | – | – | – | – | – | IC50 [5]: 4.2 ± 0.5 nM
4 | O=C(O)CC[C@H](NC(=O)N[C@@H](CCCCNC(=O)[C@H](Cc1ccc2ccccc2c1)NC(=O)c1ccc(CNC(=O)[C@H](CCC(=O)O)NC(=O)[C@H](CCC(=O)O)NC(=O)c2ccc([18F])nc2)cc1)C(=O)O)C(=O)O [[^18/19F]PSMA-1007] | 98 | 118 ± 5 % of reference | – | – | – | – | – | – | – | – | – | – | – | – | – | – | – | – | – | – | HSA-binding ([2]; listed as [^19F]PSMA-1007): > 96%; Lipophilicity Log D ([4]; listed as [^18F]PSMA-1007): -1.6 ± 0.02
5 | CC(C)(C)[Si]([18F])(c1ccc(C(=O)NC[C@@H](NC(=O)CC[C@H](C(=O)O)N2CCN(CC(=O)[O-])CCN(CC(=O)[O-])CCN(CC(=O)[O-])CC2)C(=O)N[C@H](CCCCNC(=O)CCC(=O)NCCC[C@@H](NC(=O)CC[C@H](NC(=O)N[C@@H](CCC(=O)O)C(=O)O)C(=O)O)C(=O)O)C(=O)O)cc1)C(C)(C)C.[Ga+3] [[^18F, ^natGa]rhPSMA-7.1] | – | – | 0.003 ± 0.004 | 0.86 ± 0.40 | 0.33 ± 0.24 | 0.37 ± 0.16 | 0.66 ± 0.32 | 10.9 ± 2.5 | 0.43 ± 0.07 | 0.85 ± 0.29 | 0.17 ± 0.15 | 0.16 ± 0.10 | 0.21 ± 0.08 | 0.97 ± 0.81 | 0.94 ± 0.22 | higher | 70 ± 5 % of reference | 2.0 ± 0.25 | 0.53 ± 0.13 | 0.50 ± 0.31 | Affinity fold higher than that of [19F]DCFPyL [7]: 1.8 fold; Biodistribution Heart [10]: 0.53 ± 0.03 % ID/g; Biodistribution Intestine [10]: 0.30 ± 0.16 % ID/g; Biodistribution Kidneys [10]: 220 ± 24.8 % ID/g; Biodistribution Liver [10]: 0.75 ± 0.62 % ID/g; Biodistribution Lung [10]: 1.1 ± 0.21 % ID/g; Biodistribution Muscle [10]: 0.32 ± 0.30 % ID/g; Biodistribution Pancreas [10]: 0.45 ± 0.12 % ID/g; Biodistribution Spleen [10]: 20.0 ± 4.2 % ID/g; Biodistribution Stomach [10]: 0.28 ± 0.17 % ID/g; Biodistribution Tumor [10]: 14.1 ± 4.1 % ID/g; HSA-binding [11]: 98%
6 | CC(C)(C)[Si]([18F])(c1ccc(C(=O)NC[C@H](NC(=O)CC[C@@H](C(=O)O)N2CCN(CC(=O)[O-])CCN(CC(=O)[O-])CCN(CC(=O)[O-])CC2)C(=O)N[C@H](CCCCNC(=O)CCC(=O)NCCC[C@@H](NC(=O)CC[C@H](NC(=O)N[C@@H](CCC(=O)O)C(=O)O)C(=O)O)C(=O)O)C(=O)O)cc1)C(C)(C)C.[Ga+3] [[^18F, ^natGa]rhPSMA-7.4] | – | – | 0.03 ± 0.04 | 0.82 ± 0.17 | 1.0 ± 0.8 | 0.37 ± 0.05 | 0.36 ± 0.08 | 7.2 ± 2.4 | 0.48 ± 0.14 | 0.74 ± 0.14 | 0.20 ± 0.05 | 0.18 ± 0.09 | 0.28 ± 0.15 | 0.20 ± 0.07 | 0.99 ± 0.19 | lowest enrichment in blood, liver and kidney, but also the lowest uptake by tumors | 207 ± 4 % of reference | 3.57 ± 2.38 | 1.15 ± 0.30 | 0.62 ± 0.30 | Biodistribution Heart [10]: 0.71 ± 0.26 % ID/g; Biodistribution Intestine [10]: 0.37 ± 0.09 % ID/g; Biodistribution Kidneys [10]: 153 ± 80.3 % ID/g; Biodistribution Liver [10]: 0.69 ± 0.20 % ID/g; Biodistribution Lung [10]: 1.59 ± 0.61 % ID/g; Biodistribution Muscle [10]: 0.31 ± 0.08 % ID/g; Biodistribution Pancreas [10]: 0.50 ± 0.30 % ID/g; Biodistribution Spleen [10]: 18.4 ± 9.77 % ID/g; Biodistribution Stomach [10]: 0.25 ± 0.06 % ID/g; Biodistribution Tumor [10]: 18.9 ± 3.27 % ID/g; HSA-binding [11]: 97%
